According to PubChem BioAssay (NCI):
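In this assay, cells in 96-well plates receive the compound at five concentrations for 48 hours. Endpoints are linearly interpolated between the surrounding concentrations. GI50 = concentration required for 50% inhibition of growth. TGI marks complete inhibition of growth.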

Experiments:
Assay in all cases: growth of human tumour cells (NCI), 48 h
SNB-75 CNS = test system: SNB-75 CNS
HOP-92 NSCLC = test system: HOP-92 NSCLC
T-47D breast = test system: T-47D breast
SK-OV-3 ovarian = test system: SK-OV-3 ovarian
SN12C renal = test system: SN12C renal
A498 renal = test system: A498 renal
SW-620 colon = test system: SW-620 colon
NCI-H23 lung = test system: NCI-H23 lung
NCI-H226 lung = test system: NCI-H226 lung
RXF 393 renal = test system: RXF 393 renal

Work on NP1(Oc2ccc(F)cc2)=NP(N)(Oc2ccc(F)cc2)=NP(Oc2ccc(F)cc2)(Oc2ccc(F)cc2)=N1 (stereo unspecified) yielded a TGI (SNB-75 CNS) of 14.5 µM, a TGI (HOP-92 NSCLC) of 15.4 µM and a TGI (T-47D breast) of 7.27 µM. The TGI (SK-OV-3 ovarian) was 27.2 µM, the TGI (SN12C renal) was 18.5 µM and the TGI (A498 renal) was 8.71 µM. For the same molecule, the TGI (SW-620 colon) was 24.8 µM and the TGI (NCI-H23 lung) was 23.9 µM.

Nc1ncc(CN2CCCC2)c(-c2ccccc2O)n1 gave a TGI (SNB-75 CNS) of over 750 µM, a TGI (HOP-92 NSCLC) of over 750 µM and a TGI (NCI-H226 lung) of over 750 µM. The TGI (SK-OV-3 ovarian) was over 750 µM, the TGI (RXF 393 renal) was over 750 µM and the TGI (SN12C renal) was over 750 µM. For the same molecule, the TGI (A498 renal) was over 750 µM, the TGI (SW-620 colon) was over 750 µM and the TGI (NCI-H23 lung) was over 750 µM.

Molecule CC1=Nc2ccccc2S/C1=C1/C=NC(=NC#N)N=C1C(=O)Nc1cccc(Cl)c1 has a TGI (SNB-75 CNS) of over 100 µM, a TGI (NCI-H226 lung) of over 100 µM and a TGI (SK-OV-3 ovarian) of over 100 µM. The TGI (RXF 393 renal) was over 100 µM, the TGI (SN12C renal) was over 100 µM and the TGI (A498 renal) was over 100 µM. It also gave a TGI (SW-620 colon) of over 100 µM and a TGI (NCI-H23 lung) of over 100 µM.

O=C(CC1(O)C(=O)Nc2ccccc21)c1cccc(O)c1 (stereo unspecified) was tested, and the TGI (SNB-75 CNS) was over 100 µM, the TGI (HOP-92 NSCLC) was over 100 µM and the TGI (NCI-H226 lung) was over 100 µM. It also gave a TGI (SK-OV-3 ovarian) of over 100 µM, a TGI (RXF 393 renal) of over 100 µM and a TGI (SN12C renal) of over 100 µM. The TGI (A498 renal) was over 100 µM, the TGI (SW-620 colon) was over 100 µM and the TGI (NCI-H23 lung) was over 100 µM.

COc1cc([C@H]2OC[C@@H]3C(c4cc(OC)c5c(c4)OCO5)OC[C@H]23)cc(OC)c1OC (stereo partly specified) showed a TGI (SNB-75 CNS) of over 100 µM, a TGI (HOP-92 NSCLC) of over 100 µM and a TGI (T-47D breast) of over 100 µM. For the same molecule, the TGI (NCI-H226 lung) was over 100 µM, the TGI (SK-OV-3 ovarian) was over 100 µM and the TGI (A498 renal) was over 100 µM. It also gave a TGI (SW-620 colon) of over 100 µM and a TGI (NCI-H23 lung) of over 100 µM.

N#C/C(=C/c1ccc([N+](=O)[O-])o1)c1ccccc1 gave a TGI (SNB-75 CNS) of over 100 µM, a TGI (HOP-92 NSCLC) of over 100 µM and a TGI (NCI-H226 lung) of over 100 µM. For the same molecule, the TGI (SK-OV-3 ovarian) was over 100 µM, the TGI (RXF 393 renal) was over 100 µM and the TGI (SN12C renal) was over 100 µM. For the same molecule, the TGI (SW-620 colon) was over 100 µM and the TGI (NCI-H23 lung) was over 100 µM.

O=C(O)CN(CCN(CC(=O)O)CC(=O)O)CC(=O)O.[Cu+2].[Na+] was tested, and the GI50 (SNB-75 CNS) was over 100 µM, the TGI (SNB-75 CNS) was over 100 µM and the GI50 (T-47D breast) was over 100 µM. For the same molecule, the TGI (T-47D breast) was over 100 µM, the GI50 (NCI-H226 lung) was over 100 µM and the TGI (NCI-H226 lung) was over 100 µM. For the same molecule, the GI50 (SK-OV-3 ovarian) was 23.5 µM, the TGI (SK-OV-3 ovarian) was 65.2 µM and the GI50 (RXF 393 renal) was over 100 µM. It also gave a TGI (RXF 393 renal) of over 100 µM, a GI50 (SN12C renal) of over 100 µM and a TGI (SN12C renal) of over 100 µM. The GI50 (A498 renal) was over 100 µM, the TGI (A498 renal) was over 100 µM and the GI50 (SW-620 colon) was over 100 µM. For the same molecule, the TGI (SW-620 colon) was over 100 µM, the GI50 (NCI-H23 lung) was over 100 µM and the TGI (NCI-H23 lung) was over 100 µM.

CC1=C(\C=C/C(C)=C/C=C/C(C)=C/C=C/C=C(C)\C=C\C=C(C)/C=C/C2=C(C)CCCC2(C)C)C(C)(C)CCC1 gave a TGI (SNB-75 CNS) of over 100 µM, a TGI (T-47D breast) of over 100 µM and a TGI (NCI-H226 lung) of over 100 µM. The TGI (SK-OV-3 ovarian) was over 100 µM, the TGI (RXF 393 renal) was over 100 µM and the TGI (SN12C renal) was over 100 µM. For the same molecule, the TGI (A498 renal) was over 100 µM, the TGI (SW-620 colon) was over 100 µM and the TGI (NCI-H23 lung) was over 100 µM.

Work on CCn1c(=O)nc2n(-c3ccc(SC)cc3)c3ccccc3nc-2c1=O yielded a TGI (SNB-75 CNS) of over 100 µM, a TGI (HOP-92 NSCLC) of over 100 µM and a TGI (NCI-H226 lung) of over 100 µM. For the same molecule, the TGI (SK-OV-3 ovarian) was over 100 µM, the TGI (SN12C renal) was over 100 µM and the TGI (A498 renal) was over 100 µM. For the same molecule, the TGI (SW-620 colon) was over 100 µM and the TGI (NCI-H23 lung) was over 100 µM.

Work on O=C(O)CCCCCNCc1cc2cc3c(cc2c2cc(OCc4ccccc4)ccc12)OCO3 yielded a GI50 (SNB-75 CNS) of 2.96 µM, a TGI (SNB-75 CNS) of 8.81 µM and a GI50 (HOP-92 NSCLC) of 1.38 µM. It also gave a TGI (HOP-92 NSCLC) of 2.98 µM, a GI50 (T-47D breast) of 2.06 µM and a TGI (T-47D breast) of 5.04 µM. It also gave a GI50 (NCI-H226 lung) of 4.37 µM, a TGI (NCI-H226 lung) of 21.9 µM and a GI50 (SK-OV-3 ovarian) of 5.11 µM. It also gave a TGI (SK-OV-3 ovarian) of 19.9 µM, a GI50 (SN12C renal) of 5.42 µM and a TGI (SN12C renal) of 19.8 µM. The GI50 (A498 renal) was 3.17 µM, the TGI (A498 renal) was 13.2 µM and the GI50 (SW-620 colon) was 1.5 µM. The TGI (SW-620 colon) was 3.1 µM.
